Entries after “also recorded” stand apart in the source; their conditions may differ.
Columns and labels:
[1] = system: MC-C tumor cells; test: In vitro proliferation of MC-C tumor cells; type: cell-based; details: dose-dependent, not shown
[2] = system: LB tumor; test: In vivo growth of s.c. LB tumor implants (primary, secondary under CR, established, ascitic); set-up: species or system mice; details: for growth of LB tumor implant: inoculated at the site of a primary tumor implant or systemically, daily for 8 days
Procedure: Twenty mice received an s.c. implant of 1×10^6 LB cells in the right flank, and, 7 days later, an s.c. secondary implant of 1×10^5 LB tumor cells in the left flank. […] The remaining 10 mice received 0.2 mL of phenylalanine (500 μg/mL) at the site of the secondary implant, daily, for 8 days, starting 1 hour after the secondary inoculum [CR+Phe (-□-)]. Controls were 10 mice receiving 1×10^5 LB tumor cells in the left flank only [control (-Δ-)]. A fourth group received the tumor inoculum in the left flank but also meta-tyrosine at the site of tumor implant (0.2 mL of 500 μg/mL, n=10) or by the intraperitoneal route (0.5 mL of 1,000 μg/mL, n=6), daily, for 8 days, starting 1 hour after tumor inoculum [control+m-Tyr: (-▴-)]. A fifth group received the tumor inoculum in the left flank and also meta-tyrosine (0.2 mL of 500 μg/mL, n=5) at the site of tumor growth, daily for 5 days, starting (see arrow) when LB was an established tumor measuring 60 to 70 mm^3 [est. LB+m-Tyr: (-X-)]. Abscissa, days after tumor implant in the left flank. Ordinate, volume of the tumors implanted in the left flank. CR and control+m-Tyr versus control: P<0.001 at day 9 and P<0.002 at days 5 and 7; CR and control+m-Tyr versus CR+Phe: P<0.001 at days 5, 7 and […]; est. LB+m-Tyr versus control and CR+Phe: P<0.002 at day 9. Control+tyrosine or saline, control; CR+tyrosine or saline, CR. FIG. 6B is a microscopic view showing many tumor cells expressing Ki-67 protein in both CR+phenylalanine (B1) and control (B2) groups and few tumor cells expressing Ki-67 in both CR (B3) and control+meta-tyrosine (B4) groups (H×400). FIG. 6C illustrates a representative experiment showing the frequency distribution histogram of viable LB cells from a control tumor (C1), from a secondary tumor inhibited by CR (C2), and from a tumor inhibited by periodic intraumoral injection of meta-tyrosine (C3). Samples of tumor cells were collected 9 days after the s.c. inoculation of 1×10^5 LB tumor cells.

[3] = system: CEI tumor; test: In vivo growth of s.c. CEI epidermoid carcinoma implants; set-up: species or system mice; details: for effect on growth of CEI tumor implants: mouse, in vivo
Procedure: Twelve mice received a s.c. implant of 1×10^6 CEI tumor cells in the right flank and 28 days later they received a secondary implant of 3×10^5 CEI tumor cells in the left flank. […] The remaining 6 mice received 0.2 ml of phenylalanine (500 μg/ml) at the site of the secondary implant, daily, for 19 days, starting 1 hour later than the secondary implant. These secondary implants grew as in 6 controls only receiving the implant in the left flank (tumor volumes of secondary tumor+phenylalanine and of controls, 20 days after the implant in the left flank were 358±38 mm^3 and 373±93 mm^3, respectively). […] Significance: Secondary tumor and control+m-tyrosine vs. control: p<0.01; vs. secondary tumor+phenylalanine: p<0.001.

[4] = system: C7HI tumor metastases; test: Spontaneous metastases of C7HI mammary adenocarcinoma in vivo; set-up: species or system mice
Procedure: FIG. 7A illustrates an experiment in which mice bearing a C7HI tumor for 50 days received, between days 50 and 64, a daily intravenous injection of meta-tyrosine (0.3 mL of 1,000 μg/mL) or saline. Mice were sacrificed at day 50 (n=8, before treatment, primary tumor volume 241±16 mm^3) or at day 65 for treated (n=12, primary tumor volume 1,080±101 mm^3) or control (n=12, primary tumor volume 1,091±88 mm^3) mice, and number and size of macroscopic metastases were determined; d=diameter of metastases in mm; a, P<0.05 (Mann-Whitney U test and Student t test) versus control. […] H&E, hematoxylin and eosin.
Mice bearing a C7HI tumor for 50 days received, between days 50 and 71, a daily intravenous injection of 1.0 mg of meta-tyrosine diluted in 0.1 ml of saline, or saline only. Mice were sacrificed ad day 50 (n=12, before treatment) or at day 71 for treated (n=12) or control (n=12) mice, and number and size of macroscopic metastases were determined; d=diameter of metastases in mm.
C7HI is a breast carcinoma that generates a high number of pulmonary and hepatic metastases, the number of pulmonary metastases being higher than the number of hepatic metastases. In this experiment, 36 mice received one implant each of 5×10^5 tumor C7HI cells. 50 days after implanting the tumor cells, 12 mice were sacrificed for evaluating the number and size of pulmonary and hepatic metastases. The remaining 24 mice were divided in two groups of 12 mice each. The experimental group received 1.0 mg of meta-tyrosine diluted in 0.1 ml of saline per mouse per day. […] The second group (control) received in 0.1 ml of saline per mouse per day. After 21 days of treatment, all mice were sacrificed and the number and size of the metastases were evaluated. […] This inhibitory activity was reflected not only in that the number of metastases of both groups was the same, and in some cases lower, as compared with the number of metastases at the beginning of the treatment (as estimated by the data produced by the 12 mice sacrificed before starting the treatments), but also in that their size was either the same or smaller. This is remarkable because of the 12 experimental mice, there was one showing a low response to the treatment. Should the values measured in this particular mouse be excluded from the pool, the number of metastases at day 71 in the experimental group would have been less than half the number of metastases observed before the start of the treatment at day 50.

[5] = 1.0 mg per mouse per day, intravenous, 21 days

Compound | in vitro proliferation of MC-C tumor cells [1] | effect on established s.c. LB tumors ([2]; at site of tumor growth, daily for 5 days, tumor 60 to 70 mm^3 at start) | expression of Ki-67 protein in tumor cells ([2]; control+m-tyrosine tumors or secondary implants treated with phenylalanine (FIG. 6B)) | growth of LB tumor implant [2] | tumor growth when treatment was interrupted ([2]; mouse, in vivo) | cell-cycle distribution of LB tumor cells ([2]; tumor inhibited by exogenous injection (FIG. 6C)) | tumor volume 20 days after the implant in the left flank ([3]; CEI implant in left flank only, 0.2 ml of 500 μg/ml daily for 19 days at the site of the implant) [mm^3] | effect on growth of CEI tumor implants [3] | difference between size of primary tumors at day 71, experimental versus controls ([4]; 1.0 mg daily intravenous, days 50 to 71) | growth of microscopic metastases [4, 5] | hepatic metastases at day 71 [4, 5] | growth of established macroscopic pulmonary metastases ([4]; 1.0 mg per mouse per day, intravenous, 21 days (days 50-71)) | primary tumor volume at day 65 ([4]; daily intravenous 0.3 mL of 1,000 μg/mL, days 50 to 64) | established spontaneous C7HI lung metastases ([4]; daily intravenous 0.3 mL of 1,000 μg/mL, days 50 to 64 (FIG. 7), listed as m-tyrosine) | effect on C7HI metastases, experiment repeated with orto-tyrosine ([4]; mouse, in vivo)
NC(Cc1cccc(O)c1)C(=O)O (stereo not drawn) [meta-tyrosine, 3-hydroxyphenylalanine] | inhibited | inhibitory | low expression of Ki-67 | did not grow | could reassume their growth | a decrease in G2-M phases and an increase of the S phase population | 0 | sharp inhibitory effects | not significant | prevented growth | no metastases were detected | prevented the growth | 1,080±101 mm^3 | less metastatic foci; also recorded: sharp inhibitory effects | –
NC(Cc1ccccc1O)C(=O)O (stereo not drawn) [ortho-tyrosine, 2-hydroxyphenylalanine] | inhibited | – | – | inhibitory | – | – | – | inhibitory | – | – | – | – | – | – | inhibitory effect

Reference: patent US20140323575A1, “TYROSINE ISOMERS AS THERAPEUTIC AGENTS” (CONSEJO NACIONAL DE INVESTIGACIONES CIENTIFICAS Y TECNICAS …, priority 2011, published 2014)
